According to patent US6641849B1, “Composition for the prevention and/or treatment of circulatory disorders, comprising derivatives of L-carnitine and extracts of ginkgo biloba” (Sigma-Tau HealthScience S.p.A., priority 1999, dated 2003):

Legend:
[1] = tested on: cerebral ischaemia induced by endothelin-1 (MCA occlusion); experiment: Tests of protection against experimentally induced cerebral ischaemia (endothelin-1, MCA occlusion); assay type: in vivo; conditions: rat; i.v. 5 minutes after endothelin-1; propionyl/acetyl L-carnitine 50 mg/kg, Ginkgo biloba 10 mg/kg; checked after 3 days
Experimental: Since a major responsible for causing damage following cerebral ischaemia is known to be the production of superoxides and free radicals (Litton S. A., Nature, 364:625, 1993), in these tests cerebral ischaemia was brought about by occluding the middle cerebral artery (MCA) of the rat according to the method described by Scharkey (Scharkey Y., Nature, 371:336, 1994) by injecting to the anaesthetized animal endothelin-1 (120 pml), for a duration of 3 minutes with a microcannula placed stereotactically in the pyriform cortex at the level of the middle cerebral artery (MCA).
The ischaemic area thus produced was checked after 3 days with transcardiac perfusion of paraformaldehyde solution (4% in PBS).
After removing the brain and placing it in a fixator containing 10% saccharose, cryostat sections were fixed in methyl violet and examined under the optical microscope.
The administration of propionyl L-carnitine (50 mg/kg), acetyl L-carnitine (50 mg/kg) and of a solution of Ginkgo biloba (10 mg/kg), or these compounds in combination, was performed intravenously 5 minutes following injection of endothelin-1.
The volume of the infarcted area was calculated according to the method described by Park (Park C., Anns. Neurol., 20:150, 1989).

PAF-induced mortality = PAF-induced mortality tests; assay type: in vivo, albino mice; conditions: 300 mg/kg i.p. one hour before PAF 20 μg/kg i.v., mice
Experimental: Platelet-activating factor (PAF) is an acetylated alkyl phosphoglyceride whose release in the body, under various stimuli, causes circulatory-type reactions related mainly to increased capillary permeability, with consequent extravasation of blood, increased platelet aggregation and thrombosis, reduced coronary flow, release of inflammatory factors, lysosomal enzymes and superoxides.
When administered intravenously (20 μg/kg) to animals, PAF causes the death of the animals treated with it in a short space of time, i.e. approximately one hour, mainly as a result of cardiocirculatory collapse.
A series of tests was conducted using the method described by Young (Young J. N., Prostaglandins 30:545, 1985) and by Myers (Myers H., Br. J. Pharmacol., 79:595, 1983) in order to assess whether Ginkgo biloba extracts (whose anti-PAF activity is known) protect animals injected with PAF against death and whether the carnitines (particularly propionyl L-carnitine, whose vascular regulatory activity is known) are capable of increasing the protective effect against PAF.
The tests were conducted on albino mice with a mean weight of 25 g divided into various groups, the first of which served as control group and received intravenous injections of PAF at the dose of 20 μg/kg, while the other groups were administered intraperitoneal injections, one hour before to PAF administration, either of Ginkgo biloba extract, or of the various carnitines alone or in combination, or of Ginkgo biloba plus carnitines.

[2] = tested on: collagen-induced platelet aggregation; experiment: Platelet aggregation tests; assay type: cell-based, human (healthy volunteers); conditions: collagen 2.5 μg/ml, 10 minutes' incubation; for ED50 (platelet aggregation): human blood
Experimental: In these tests, blood samples were taken from healthy volunteers with a platelet content of at least 300,000/mm^3. The method described by Born (Born J. V. R. J. Physiol., 26:25 1963) was used to induce platelet aggregation.
Platelet aggregation was induced by collagen (2.5 μg/ml) and measured both at the beginning and after 10 minutes' incubation with propionyl L-carnitine, acetyl L-carnitine, Ginkgo biloba extract or with these compounds in various combinations.

[3] = tested on: pitressin-induced coronary spasm; experiment: Coronary spasm tests (pitressin); assay type: in vivo, rat; conditions: oral, three days before pitressin i.v.; Ginkgo biloba extract 100 mg/kg, carnitines or carnitine mixture 300 mg/kg; number of rats
Text: Enhancement of the activity of Ginkgo biloba when combined with carnitines was also found on evaluating the effects of the administration of these substances alone and in combination on pitressin-induced experimental coronary spasm.
As is known, intravenous injection of 1 v/kg of pitressin in the rat causes characteristic electrocardiographic abnormalities which are most noticeable in lead II as affecting the T wave (asphyxial T wave) due to the diminished myocardial oxygenation related to the reduced coronary flow caused by the pitressin-induced vascular spasm.
In these tests, before being injected with pitressin, the rats received oral administrations for three days consecutively of 100 mg/kg of Ginkgo biloba extracts, or of 300 mg/kg of carnitines alone or carnitine mixture, or of carnitine or carnitine mixture in combination with Ginkgo biloba.

[4] = tested on: pheochromocytoma cells (PC-12); experiment: Tests of H2O2 toxicity on pheochromocytoma cells (PC-12); assay type: cell-based; conditions: 10^−8 M; PC-12, H2O2 30 minutes, 24 hours of observation; H2O2 alone approximately 38%
Experimental: In these tests, a pheochromocytoma cell (PC-12) culture was used containing 3×10^5 M cells/ml which was submitted for 30 minutes to 0.1 g mM H2O2.

[5] = tested on: PAF-induced oedema of the rat paw; experiment: PAF-induced inflammatory reaction tests (paw oedema, plethysmographic); assay type: in vivo; conditions: 300 mg/kg i.p. one hour before PAF 2 μg into rear paw, rats
Experimental: In these experiments, a solution containing PAF was injected into the paws of rats according to the method described by Burstein (Burstein S. H., J. Pharmacol. Exptl. Ther., 251:531, 1989).
As is known, PAF injected into the rat paw causes the release of numerous phlogogenic substances, including prostaglandins, which gives rise in a short time to the onset of marked oedema (Bonnet J., J. Agent Actions, 11:559, 1981).
Using the method described by Goldenberg (Goldenberg M. M., Prostaglandins, 28:271, 1984) and Silva (Silva P. M. R., Inflammation, 10:393, 1986), a solution of PAF at an overall dose of 2 μg was injected into the rear paws of rats, and the ensuing oedematous reaction was evaluated with a plethysmographic method according to the technique described by Ferreira (Ferreira S. H., J. Pharmacol., 127:83, 1979).
The tests were conducted in various groups of rats, one of which was a control group, while the others received intraperitoneal administrations, one hour before to PAF injection, of acetyl L-carnitine (300 mg/kg), or propionyl L-carnitine (300 mg/kg), or of a combination of L-carnitine (75 mg/kg), acetyl L-carnitine (75 mg/kg) and propionyl L-carnitine (75 mg/kg), or of a Ginkgo biloba extract (100 mg/kg), or of the Ginkgo biloba extract plus carnitines.

Row | Compound | magnitude of ischaemia (volume mm^3) due to MCA occlusion [1] [mm^3] | % mortality 1 h after PAF injection (PAF-induced mortality) | reduction of platelet aggregation (in words) [2] | ED50 (platelet aggregation) [2] [µg] | Rats not protected [3] | Rats protected [3] | Rats weakly protected [3] | survival of the cells [4] [%] | % reduction of oedema [5] [%]
1 | CC(=O)O[C@H](CC(=O)[O-])C[N+](C)(C)C [Acetyl L-carnitine, acetyl L-carnitine] | 21.6 ± 1.8 | 80/100 | only to a slight extent | 26.4 ± 0.34 | 3 | 1 | 3 | 55 | 15
2 | C[N+](C)(C)C[C@H](O)CC(=O)[O-] [L-carnitine] | – | 90/100 | – | – | 3 | 0 | 1 | – | 10
3 | CCC(=O)O[C@H](CC(=O)[O-])C[N+](C)(C)C [Propionyl L-carnitine, propionyl L-carnitine] | 32.6 ± 2.4 | 80/100 | only to a slight extent | 30.5 ± 0.41 | 4 | 2 | 3 | 45 | 35
